Laboratory results published in patent publication US20260265238A1, “COMPOUNDS AND PHARMACEUTICAL COMPOSITIONS THAT DEGRADE SWI/SNF-RELATED MATRIX-ASSOCIATED ACTIN-DEPENDENT REGULATOR OF CHROMATIN SUBFAMILY A” (Plexium, Inc., priority 2023, published 2026).

Assays:
[1] = target: T1, SMARCA2-HiBiT HeLa cells (protein which is expressed from the SMARCA2 gene) (Homo sapiens, UniProt P51531); assay: SMARCA2 degradation assay (HiBiT-fusion HeLa cell line, 24 h, luminescence); format: cell-based
T1 construct: protein which is expressed from the SMARCA2 and SMARCA4 genes; host or cells: HeLa (SMARCA2-HiBiT engineered line)
T1 sequence (P51531 whole entry, the tested form may be a part): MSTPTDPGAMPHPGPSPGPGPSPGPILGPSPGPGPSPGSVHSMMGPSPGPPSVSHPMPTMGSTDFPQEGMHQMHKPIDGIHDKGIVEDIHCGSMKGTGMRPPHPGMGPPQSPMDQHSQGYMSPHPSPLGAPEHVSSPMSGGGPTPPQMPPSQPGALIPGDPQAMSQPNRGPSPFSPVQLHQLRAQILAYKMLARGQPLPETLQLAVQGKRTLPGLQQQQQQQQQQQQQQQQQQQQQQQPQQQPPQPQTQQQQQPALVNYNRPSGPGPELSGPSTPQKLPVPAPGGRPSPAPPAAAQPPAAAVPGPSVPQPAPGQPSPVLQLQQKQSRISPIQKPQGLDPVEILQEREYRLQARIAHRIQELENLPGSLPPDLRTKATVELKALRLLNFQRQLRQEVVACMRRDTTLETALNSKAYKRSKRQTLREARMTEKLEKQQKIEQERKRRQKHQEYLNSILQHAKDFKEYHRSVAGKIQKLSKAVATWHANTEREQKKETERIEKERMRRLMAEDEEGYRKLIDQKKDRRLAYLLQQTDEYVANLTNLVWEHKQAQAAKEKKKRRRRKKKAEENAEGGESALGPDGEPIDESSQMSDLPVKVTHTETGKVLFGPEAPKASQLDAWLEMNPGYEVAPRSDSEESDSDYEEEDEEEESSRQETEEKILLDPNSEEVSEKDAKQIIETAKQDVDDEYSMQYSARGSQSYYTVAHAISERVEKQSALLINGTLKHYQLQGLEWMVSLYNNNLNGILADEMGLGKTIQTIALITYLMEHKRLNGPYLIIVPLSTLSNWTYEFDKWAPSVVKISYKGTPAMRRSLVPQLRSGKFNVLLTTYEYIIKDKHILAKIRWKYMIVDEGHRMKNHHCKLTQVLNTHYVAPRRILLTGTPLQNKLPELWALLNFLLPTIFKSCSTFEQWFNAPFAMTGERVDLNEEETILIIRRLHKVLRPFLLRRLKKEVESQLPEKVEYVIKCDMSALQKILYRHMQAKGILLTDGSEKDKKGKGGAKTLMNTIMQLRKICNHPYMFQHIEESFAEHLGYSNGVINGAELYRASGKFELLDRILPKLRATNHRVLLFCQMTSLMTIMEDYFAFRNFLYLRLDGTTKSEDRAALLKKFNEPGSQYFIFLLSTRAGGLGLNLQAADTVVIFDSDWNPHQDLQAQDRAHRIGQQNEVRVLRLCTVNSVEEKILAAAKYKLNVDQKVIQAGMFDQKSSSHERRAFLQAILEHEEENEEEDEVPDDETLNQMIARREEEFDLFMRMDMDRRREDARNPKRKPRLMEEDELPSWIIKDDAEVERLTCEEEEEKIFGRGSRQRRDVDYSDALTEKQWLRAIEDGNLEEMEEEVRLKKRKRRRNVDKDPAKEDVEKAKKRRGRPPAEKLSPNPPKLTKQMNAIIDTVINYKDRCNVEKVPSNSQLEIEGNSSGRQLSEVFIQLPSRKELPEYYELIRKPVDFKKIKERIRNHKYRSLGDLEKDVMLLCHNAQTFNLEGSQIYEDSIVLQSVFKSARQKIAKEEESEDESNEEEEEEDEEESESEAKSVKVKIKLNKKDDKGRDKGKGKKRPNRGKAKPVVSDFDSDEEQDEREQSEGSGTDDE
How it was run: (§1)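 HeLa cells carrying HiBiT-tagged SMARCA2 or SMARCA4 were seeded at 8,000 cells/well, allowed to attach overnight at 37° C., then given compounds in a 10-point dilution series (typically 10 μM to 300 pM) for 24 hours at 37° C. Remaining tagged protein was read by HiBiT lytic luminescence, and DC50s came from dose-response curves.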

[2] = target: T2, SMARCA4-HiBiT HeLa cells (protein which is expressed from the SMARCA4 gene) (Homo sapiens, UniProt P51532); assay: SMARCA4 degradation assay (HiBiT-fusion HeLa cell line, 24 h, luminescence); format: cell-based
T2 construct: protein which is expressed from the SMARCA2 and SMARCA4 genes; host or cells: HeLa (SMARCA4-HiBiT engineered line)
T2 sequence (P51532 whole entry, the tested form may be a part): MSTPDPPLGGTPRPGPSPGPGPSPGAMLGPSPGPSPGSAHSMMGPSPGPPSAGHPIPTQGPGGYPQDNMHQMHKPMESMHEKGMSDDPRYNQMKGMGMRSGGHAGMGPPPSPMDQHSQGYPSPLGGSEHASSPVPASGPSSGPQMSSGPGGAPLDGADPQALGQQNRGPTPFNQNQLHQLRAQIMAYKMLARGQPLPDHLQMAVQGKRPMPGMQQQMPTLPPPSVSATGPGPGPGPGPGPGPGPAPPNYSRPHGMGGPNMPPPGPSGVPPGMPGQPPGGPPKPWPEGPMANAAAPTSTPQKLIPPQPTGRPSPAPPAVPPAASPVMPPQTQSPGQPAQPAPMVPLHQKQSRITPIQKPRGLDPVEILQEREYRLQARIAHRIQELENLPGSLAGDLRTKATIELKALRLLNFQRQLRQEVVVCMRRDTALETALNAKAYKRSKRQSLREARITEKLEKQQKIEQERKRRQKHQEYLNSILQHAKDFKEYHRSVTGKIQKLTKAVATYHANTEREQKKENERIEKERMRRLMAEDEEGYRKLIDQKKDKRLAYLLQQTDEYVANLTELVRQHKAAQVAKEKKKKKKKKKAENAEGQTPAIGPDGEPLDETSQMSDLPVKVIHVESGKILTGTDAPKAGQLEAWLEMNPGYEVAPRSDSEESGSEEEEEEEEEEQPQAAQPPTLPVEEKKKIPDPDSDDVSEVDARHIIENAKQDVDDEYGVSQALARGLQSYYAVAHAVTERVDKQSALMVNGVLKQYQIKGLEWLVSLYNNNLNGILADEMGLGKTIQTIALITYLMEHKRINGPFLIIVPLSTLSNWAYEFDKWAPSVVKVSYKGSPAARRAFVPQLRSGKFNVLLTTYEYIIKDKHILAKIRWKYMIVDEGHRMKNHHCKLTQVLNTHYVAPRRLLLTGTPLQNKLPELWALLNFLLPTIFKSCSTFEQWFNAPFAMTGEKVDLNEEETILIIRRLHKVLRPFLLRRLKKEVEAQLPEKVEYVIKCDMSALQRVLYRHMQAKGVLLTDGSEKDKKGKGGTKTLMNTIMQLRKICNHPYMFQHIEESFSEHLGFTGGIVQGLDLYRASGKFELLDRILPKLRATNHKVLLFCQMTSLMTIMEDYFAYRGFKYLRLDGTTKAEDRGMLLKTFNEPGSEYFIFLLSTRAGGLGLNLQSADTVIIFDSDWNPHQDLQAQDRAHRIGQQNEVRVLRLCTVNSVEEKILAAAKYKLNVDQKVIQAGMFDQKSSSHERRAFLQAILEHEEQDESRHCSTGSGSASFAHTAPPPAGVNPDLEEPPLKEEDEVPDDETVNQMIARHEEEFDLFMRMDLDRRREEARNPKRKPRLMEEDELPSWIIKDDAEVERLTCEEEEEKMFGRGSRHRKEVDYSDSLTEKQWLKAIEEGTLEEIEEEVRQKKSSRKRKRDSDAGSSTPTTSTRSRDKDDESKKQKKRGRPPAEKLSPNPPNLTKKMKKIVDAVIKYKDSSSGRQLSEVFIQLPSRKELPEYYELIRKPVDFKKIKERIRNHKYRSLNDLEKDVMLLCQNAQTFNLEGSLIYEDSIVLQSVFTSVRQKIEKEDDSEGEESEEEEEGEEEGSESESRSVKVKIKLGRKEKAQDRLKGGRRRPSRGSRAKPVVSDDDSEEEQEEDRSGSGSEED
How it was run: as §1

SMILES | DC50 [1] [nM] | SMARCA2 % Degradation @ 1 μM [1] | DC50 [2] [nM] | inhibition at 1 µM [2] [%]
C[C@@H](O)C#Cc1nccc(N2CCCN(c3cc(-c4ccccc4O)nnc3N)CC2)n1 [Compound P-322, 0-[5-(4-{2-[(R)-3-hydroxy-1-butynyl]-4-pyrimidinyl}-1,4-diazepan-1-yl)-6-amino-3-pyridazinyl]phenol] | 50 to 500 | ++ (++=30-70%) | 50 to 500 | 30 to 70
Nc1nnc(-c2ccccc2O)cc1N1CCC2(CCN(c3ccnc(C#CCNC(=O)c4cc5ncccn5n4)n3)CC2)C1 [Compound P-34, N-(3-(4-(2-(3-amino-6-(2-hydroxyphenyl)pyridazin-4-yl)-2,8-diazaspiro[4.5]decan-8-yl)pyrimidin-2-yl)prop-2-yn-1-yl)pyrazolo[1,5-a]pyrimidine-2-carboxamide] | 50 to 500 | ++ (++=30-70%) | 50 to 500 | 30 to 70
C[C@@H]1CCN(c2cc(-c3ccccc3O)nnc2N)CCN1c1ccnc(C#CCN2CC(C#N)C2)n1 [Compound P-215, 1-[3-(4-{ (R)-4-[3-amino-6-(o-hydroxyphenyl)-4-pyridazinyl]-7-methyl-1,4-diazepan-1-yl}-2-pyrimidinyl)-2-propynyl]-3-azetidinecarbonitrile] | 50 to 500 | +++ (+++=>70%) | 50 to 500 | 30 to 70
Nc1nnc(-c2ccccc2O)cc1N1CCCN(c2ccnc(C#CCN3C[C@@H]4C[C@H]3CO4)n2)CC1 [Compound P-377, 0-(5-{4-[2-(3-{(1S,4S)-2-oxa-5-azabicyclo[2.2.1]hept-5-yl}-1-propynyl)-4-pyrimidinyl]-1,4-diazepan-1-y1}-6-amino-3-pyridazinyl)phenol] | 50 to 500 | ++ (++=30-70%) | 500 to 5000 | 30 to 70
CN(C)CC#Cc1nccc(N2C3CC2CN(c2cc(-c4ccccc4O)nnc2N)C3)n1 [Compound P-206, o-[6-amino-5-(6-{2-[3-(dimethylamino)-1-propynyl]-4-pyrimidinyl}-3,6-diazabicyclo[3.1.1]hcpt-3-yl)-3-pyridazinyl]phenol] | < 50 | +++ (+++=>70%) | 50 to 500 | > 70
C[C@@H]1CCN(c2cc(-c3ccccc3O)nnc2N)CCN1c1ccnc(C#CCN2CC(F)(F)C3(CCC3)C2)n1 [Compound P-209, o-{5-[(R)-4-(2-{3-(8,8-difluoro-6-aza-6-spiro[3.4]octyl)-1-propyny1}-4-pyrimidinyl)-5-methyl-1,4-diazepan-1-yl]-6-amino-3-pyridaziny1} phenol] | 50 to 500 | ++ (++=30-70%) | 50 to 500 | 30 to 70
Nc1nnc(-c2ccccc2O)cc1N1CCCN(c2ccnc(C#CCNC(=O)NC3CC3)n2)CC1 [Compound P-324, 0-[6-amino-5-(4-{2-[3-(3-cyclopropylureido)-1-propynyl]-4-pyrimidinyl}-1,4-diazepan-1-yl)-3-pyridazinyl]phenol] | 500 to 5000 | ++ (++=30-70%) | 500 to 5000 | < 30
C[C@@H]1CCN(c2cc(-c3ccccc3O)nnc2N)CCN1c1ccnc(C#CCN2[C@H](C)C[C@H]2C)n1 [Compound P-264, o-{5-[(R)-4-(2-{3-[(2R,4R)-2,4-dimethyl-1-azetidinyl]-1-propynyl}-4-pyrimidinyl)-5-methyl-1,4-diazepan-1-yl]-6-amino-3-pyridazinyl}phenol] | < 50 | ++ (++=30-70%) | < 50 | 30 to 70
Nc1nnc(-c2ccccc2O)cc1N1CCN(c2ccnc(C#CCNC(=O)c3ccncc3)n2)CC1 [Compound P-56, N-(3-(4-(4-(3-amino-6-(2-hydroxyphenyl)pyridazin-4-yl)piperazin-1-yl)pyrimidin-2-yl)prop-2-yn-1-yl)isonicotinamide] | 50 to 500 | ++ (++=30-70%) | 50 to 500 | 30 to 70
C[C@@H]1CCN(c2cc(-c3ccccc3O)nnc2N)CCN1c1ccnc(C#CCN2CCC(C)(F)C2)n1 (stereo partly drawn) [Compound P-210, o-{5-[(R)-4-{2-[3-(3-fluoro-3-methyl-1-pyrrolidinyl)-1-propynyl]-4-pyrimidinyl}-5-methyl-1,4-diazepan-1-yl]-6-amino-3-pyridaziny1} phenol] | < 50 | ++ (++=30-70%) | < 50 | 30 to 70
CC(C)(C)OC(=O)N1CC(C#Cc2nccc(N3CCCN(c4cc(-c5ccccc5O)nnc4N)CC3)n2)C1 [Compound P-371, tert-butyl 3-[2-(4-{4-[3-amino-6-(o-hydroxyphenyl)-4-pyridaziny1]-1,4-diazepan-1-yl}-2-pyrimidinyl)ethynyl]-1-azetidinecarboxylate] | 50 to 500 | +++ (+++=>70%) | 50 to 500 | 30 to 70
Nc1nnc(-c2ccccc2O)cc1N1CCCN(c2ccnc(C#CCn3ccnn3)n2)CC1 [Compound P-144, 2-(5-(4-(2-(3-(1H-1,2,3-triazol-1-yl)prop-1-yn-1-yl)pyrimidin-4-yl)-1,4-diazepan-1-yl)-6-aminopyridazin-3-yl)phenol] | 50 to 500 | +++ (+++=>70%) | 50 to 500 | 30 to 70
Nc1nnc(-c2ccccc2O)cc1N1CCCN(c2ccnc(C#Cc3cnc4cnccn34)n2)CC1 [Compound P-135, 2-(6-amino-5-(4-(2-(imidazo[1,2-a]pyrazin-3-ylethynyl)pyrimidin-4-yl)-1,4-diazepan-1-yl)pyridazin-3-yl)phenol] | 50 to 500 | ++ (++=30-70%) | 50 to 500 | 30 to 70
C[C@@H]1CCN(c2cc(-c3ccccc3O)nnc2N)CCN1c1ccnc(C#CCN(C)C)n1 [Compound P-345, 0-{5-[(R)-4-{2-[3-(dimethylamino)-1-propynyl]-4-pyrimidinyl}-5-methyl-1,4-diazepan-1-y1]-6-amino-3-pyridazinyl}phenol] | < 50 | ++ (++=30-70%) | < 50 | 30 to 70
CC1(NCC#Cc2nccc(N3CCCN(c4cc(-c5ccccc5O)nnc4N)CC3)n2)COC1 [Compound P-278, 0-[6-amino-5-(4-{2-[3-(3-methyl-3-oxetanylamino)-1-propynyl]-4-pyrimidinyl}-1,4-diazepan-1-yl)-3-pyridazinyl]phenol] | 50 to 500 | ++ (++=30-70%) | 50 to 500 | 30 to 70
Nc1nnc(-c2ccccc2O)cc1N1CCN(c2ccnc(C#CCNC(=O)c3cc4n(n3)CCCC4)n2)CC1 [Compound P-69, N-(3-(4-(4-(3-amino-6-(2-hydroxyphenyl)pyridazin-4-yl)piperazin-1-yl)pyrimidin-2-yl)prop-2-yn-1-yl)-4,5,6,7-tetrahydropyrazolo[1,5-a]pyridine-2-carboxamide] | 50 to 500 | ++ (++=30-70%) | < 50 | 30 to 70
